The numbers were not newly measured in patent US20240252403A1, “SKIN CARE COMPOSITION FOR APPLICATION TO SKIN” (COSMED PHARMACEUTICAL CO., LTD., priority 2021, published 2024), which cites them from elsewhere.

On to `N[C@@H](CCC(=O)N[C@@H](CS)C(=O)NCC(=O)O)C(=O)O` [glutathione], for which the saturation solubility is recorded as 13.0 g/100 g.

As to `Cc1ncc(CO)c(CO)c1O.Cl` [pyridoxine hydrochloride], the saturation solubility was 22.0 g/100 g.

With `NCCS(=O)(=O)O` [taurine], the saturation solubility is 7.9 g/100 g.
